Columns and labels:
DM93 cells [1] = experiment: BrdU staining and flow cytometry (rereplication); format: cell-based, human; settings: DM93, pevonedistat
Experimental: The effects of pevonedistat and/or silencing of cell cycle-associated proteins on cell cycle distribution or rereplication were assessed by flow cytometry according to the manufacturer's instructions. Different melanoma lines were transfected with si-GL2, si-CDT2, si-CDT1, si-SET8, si-p21, or si-geminin for a time ranging from 24 to 96 hours. At the end of treatment, cells were pulsed with BrdU (10 nM) for 1 hour in the dark prior to harvesting. Cells were washed with PBS and staining solution before the fixation and permeabilization steps according to the manufacturer's instructions. Cells were subsequently stained with anti-BrdU antibody solution for 20 minutes at room temperature, washed, and stained with 7-AAD solution for 30 minutes at 4° C. The cells were resuspended in 1 ml of staining buffer and kept overnight at 4° C. before analysis. Samples were analyzed on a FFACSCAN™ (Becton, Dickinson and Company, Franklin Lakes, N.J., United States of America), and different phases of the cell cycle were determined using FLOWJO® (FLOWJO, LLC, Ashland, Oreg., United States of America) and ModFit (Verity Software House, Topsham, Me., United States of America) software.

DM93 cells [2] = experiment: Clonogenic survival assay; format: cell-based, human
Experimental: (§1) Cell survival following CDT2 depletion or pevonedistat treatment was assessed by clonogenic survival assay, preformed in triplicates. 72 hours following transfection with si-GL2 or si-CDT2, cells were trypsinized, counted, and seeded in 60 mm dishes. For pevonedistat treatments, cells were counted and seeded in 60 mm dishes and treated 24 hours later with various doses of pevonedistat or with DMSO. Cells were cultured for two weeks and were subsequently washed in cold PBS, fixed in cold methanol for 10 minutes, and stained with crystal violet (0.5%) for 10 minutes. Plates were washed with water, dried, and pictures were captured using IMAGE LAB™ software (BioRad Laboratories, Inc., Hercules, Calif., United States of America). Quantification of colonies was performed using QUANTITY ONE® software (BioRad Laboratories, Inc., Hercules, Calif., United States of America). Results are represented as mean±s.e.m. of triplicates normalized to the corresponding DMSO-treated or si-GL2 transfected controls.

VMM39 cells [3] = experiment: Clonogenic survival assay; format: cell-based, human
Experimental: as §1

DM13 cells = experiment: Cell proliferation/viability MTT assay; format: cell-based; settings: Homo sapiens, 96 hours
Experimental: (§2) Proliferation and viability of cultured cells was measured by CELLTITER96® Non-radioactive Cell Proliferation Assay (Promega Corporation; Madison, Wis., United States of America). Briefly, various wild type and mutant BRAF melanoma cells were seeded in 96 well plates and treated with pevonedistat, vemurafenib, or the combination pevonedistat and vemurafenib at various concentrations. Control cells were treated with DMSO. 96 hours following treatment, cells were stained with the dye solution according to the manufacturer's protocol. Absorbance was recorded at 570 nm and growth curves were established. To test the effect of transient exposure of melanoma cells to pevonedistat on rereplication and growth inhibition, washout experiments were conducted where melanoma cells or PIG3V melanocytes were treated with […] pevonedistat for different times (4, 8, 12, and 24 hours) before the drug was washed out by washing the cells twice with PBS, and adding drug-free fresh growth media to cells. Cells were counted every 24 hours using a COUNTESS™ Automated Cell Counter (INVITROGEN™, Carlsbad, Calif., United States of America), and harvested at the indicated times for PI staining and FACS analysis (cell cycle profile) or for immunoblotting.

VMM1 melanoma cells = experiment: Cell proliferation/viability MTT assay; format: cell-based; settings: Homo sapiens, 96 hours
Experimental: as §2

VMM39 cells [4] = experiment: Cell proliferation/viability MTT assay; format: cell-based; settings: Homo sapiens, 96 hours
Experimental: as §2

Cal27 cells = experiment: Rereplication by propidium iodide staining and FACS (HNSCC); format: cell-based, human
Experimental: The effect of pevonedistat treatment or CDT2, geminin, or EMI1 knockdown on the cell cycle (and induction of DNA rereplication) was assessed by flow cytometry with propidium iodide (PI) staining. […] Cells were collected, washed with PBS, and resuspended in ethanol (75%). Cells were subsequently treated with 20 μg of DNase-free RNase and stained with PI following the manufacturer's protocol. FACSCAN™ (Becton, Dickinson and Company, Franklin Lakes, N.J., United States of America) was used to analyze the samples and G0-G1, S, and G2-M fractions were segmented. Subsequent analysis using FLOWJO® (FLOWJO, LLC, Ashland, Oreg., United States of America) and ModFit (Verity Software House, Topsham, Me., United States of America) software was used to determine apoptotic and re-replicating fractions. Where indicated, Cal27 and FaDu cells were treated with pevonedistat for 48 hours and pulsed with BrdU (10 nM) for 1 hour in the dark prior to harvesting. Cells were washed with PBS and staining solution before fixation and permeabilization steps according to the manufacturer's protocol. Cells were subsequently stained with anti-BrdU antibody solution for 20 minutes at room temperature, washed, and stained with 7-AAD for 30 minutes at 4° C. Cells were resuspended in 1 ml of staining buffer and stored at 4° C. overnight before analysis. Sampled were analyzed on a FACSCAN™ (Becton, Dickinson and Company, Franklin Lakes, N.J., United States of America), and different fractions of BrdU positive cells were determined using FLOWJO® (FLOWJO, LLC, Ashland, Oreg., United States of America) and ModFit (Verity Software House, Topsham, Me., United States of America) software.

DM93 cells [5] = experiment: Senescence-associated β-galactosidase assay; format: cell-based, human; settings: DM93, pevonedistat, as early as 48 hours post-treatment
Experimental: Senescence was monitored using β-galactosidase (β-gal) staining. Following the various treatments, cells were washed twice with PBS, fixed with 2% formaldehyde/0.2% gluteraldehyde in PBS for 15 minutes at room temperature, and washed twice with PBS. The cells were stained with fresh X-Gal solution (1 mg/ml X-gal, 40 mM C6H8O7.H2O, 5 mM K3Fe(CN)6, 5 mM K4Fe(CN)6.3H2O, 150 mM NaCl, and 2 mM MgCl2.6H2O in PBS) for 3-12 hours at 37° C. in the dark. Cells were washed three times in PBS and fixed with 100% methanol for 5 minutes at room temperature. Bright field blue color images were taken with an AMG EVOS® XL Core Imager/camera microscope (Life Technologies, Inc., Carlsbad, Calif., United States of America) counting at least 100 cells from at least 3 fields.

SqCC/Y1 HNSCC cells = settings: SqCC/Y1, 0.5 μM pevonedistat; cited from earlier work

## NS(=O)(=O)OCC1CC(n2ccc3c(NC4CCc5ccccc54)ncnc32)CC1O [pevonedistat, ((1S,2S,4R)-4-(4-((1S)-2,3-Dihydro-H-inden-1-ylamino)-7H-pyrrolo(2,3-d)pyrimidin-7-yl)-2-hydroxycyclopentyl)methyl sulphamate]
DM93 cells [1]; 24 hours
  cells with rereplication within the same cell cycle (BrdU labeling): 17.3%
DM93 cells [1]; 48 hours
  cells with rereplication within the same cell cycle (BrdU labeling): 61.7%
DM93 cells [2]
  drug concentration inhibiting proliferation (clonogenic survival): 100 nM
VMM39 cells [3]
  drug concentration inhibiting proliferation (clonogenic survival): 50 nM
DM13 cells
  IC50: 40 nM
VMM1 melanoma cells
  IC50: 330 nM
VMM39 cells [4]
  IC50: 35 nM
Cal27 cells; Cal27, 40 nM pevonedistat 48 hours plus 2 Gy at the 24 hour time point
  cells undergoing rereplication: 32.9%
Cal27 cells; Cal27, 40 nM pevonedistat for 48 hours
  cells undergoing rereplication: 16.8%
Cal27 cells; Cal27, 100 nM pevonedistat, PI staining
  cells exhibiting >4N DNA content: 61%
DM93 cells [5]
  senescence: majority of cells underwent senescence
SqCC/Y1 HNSCC cells
  apoptosis (% of cells): 55%

From patent US20200397894A1, “COMPOSITIONS AND METHODS FOR TREATING CANCER” (University of Virginia Patent Foundation, priority 2016, published 2020)
